In ChEMBL document CHEMBL1687767, “New antiseptic peptides to protect against endotoxin-mediated shock” (Antimicrob Agents Chemother, 2010):
In brackets after ≈: the same amount, converted by molar mass. Activity calls are given as the source filed them. The rule behind the calls is not given here. Residues, ends and D or L forms follow the SMILES beside them.

Key:
[1] = species: Homo sapiens; test: Antiinflammatory activity in human MNC assessed as inhibition of LPS-induced TNFalpha production at compound: LPS ratio of 100:1 weight percent by ELISA; assay type: functional
[2] = tested on: Mus musculus; test: Antisepsis activity in Salmonella enterica serovar Minnesota R60 LPS-induced C57BL/6 mouse lethal endotoxin shock model assessed as mouse survival at 12.5 ug, ip administered immediately after LPS challenge; assay type: functional, organism-based
[3] = tested on: Jurkat; test: Cytotoxicity against human Jurkat cells assessed as effect on respiration rate at 10 ug/ml by Chip-based Bionas system; assay type: cell-based
[4] = tested on: Jurkat; test: Cytotoxicity against human Jurkat cells assessed as effect on respiration rate at 100 ug/ml by Chip-based Bionas system; assay type: cell-based
[5] = tested on: HepG2; test: Cytotoxicity against human HepG2 cells assessed as effect on respiration rate at 10 ug/ml by Chip-based Bionas system; assay type: cell-based
[6] = tested on: HepG2; test: Cytotoxicity against human HepG2 cells assessed as effect on respiration rate at 100 ug/ml by Chip-based Bionas system; assay type: cell-based
[7] = Cytotoxicity against human LS 174T cells assessed as effect on respiration rate at 10 ug/ml by Chip-based Bionas system; assay type: cell-based; details: ls174t
[8] = Cytotoxicity against human LS 174T cells assessed as effect on respiration rate at 100 ug/ml by Chip-based Bionas system; assay type: cell-based; details: ls174t
[9] = tested on: PBMC; test: Cytotoxicity against human PBMC cells assessed as effect on respiration rate at 10 ug/ml by Chip-based Bionas system; assay type: cell-based
[10] = tested on: PBMC; test: Cytotoxicity against human PBMC cells assessed as effect on respiration rate at 100 ug/ml by Chip-based Bionas system; assay type: cell-based
[11] = tested on: HeLa; test: Cytotoxicity against human HeLa cells at 10 ug/ml by MTT assay; assay type: cell-based
[12] = tested on: HeLa; test: Cytotoxicity against human HeLa cells at 100 ug/ml by MTT assay; assay type: cell-based
[13] = tested on: HaCaT; test: Cytotoxicity against human HaCaT cells at 10 ug/ml by MTT assay; assay type: cell-based
[14] = tested on: HaCaT; test: Cytotoxicity against human HaCaT cells at 100 ug/ml by MTT assay; assay type: cell-based
[15] = Toxicity in human RBC assessed as hemolysis upto 25 ug/ml; assay type: cell-based; details: erythrocyte
[16] = tested on: Mus musculus; test: Antisepsis activity in Salmonella enterica serovar Minnesota R60 LPS-induced C57BL/6 mouse lethal endotoxin shock model assessed as mouse survival at 2.5 ug, ip administered immediately after LPS challenge measured 48 hrs post LPS challenge; assay type: functional, organism-based
[17] = tested on: Lipopolysaccharide (LPS); test: Binding affinity to Salmonella enterica serovar Minnesota R60 LPS at [compound]/[LPS] ratio of 0.3 by isothermal titration calorimetry; details: Salmonella enterica subsp. enterica serovar Minnesota
[18] = tested on: Bordetella bronchiseptica; test: Antimicrobial activity against Bordetella bronchiseptica CUN11844-99 by broth microdilution method; assay type: functional
[19] = tested on: Pseudomonas aeruginosa; test: Antimicrobial activity against Pseudomonas aeruginosa CUN 4158-02 by broth microdilution method; assay type: functional
[20] = tested on: Pseudomonas aeruginosa; test: Antimicrobial activity against Pseudomonas aeruginosa ATCC 27853 by broth microdilution method; assay type: functional
[21] = tested on: Escherichia coli; test: Antimicrobial activity against Escherichia coli ATCC 25922 by broth microdilution method; assay type: functional
[22] = tested on: Staphylococcus aureus; test: Antimicrobial activity against Staphylococcus aureus ATCC 25923 by broth microdilution method; assay type: functional
[23] = tested on: Staphylococcus aureus; test: Antimicrobial activity against methicillin-resistant Staphylococcus aureus ATCC 43300 by broth microdilution method; assay type: functional
[24] = tested on: Staphylococcus aureus; test: Antimicrobial activity against methicillin-resistant Staphylococcus aureus CUN 3792-99 by broth microdilution method; assay type: functional
[25] = tested on: Stenotrophomonas maltophilia; test: Antimicrobial activity against […] Stenotrophomonas maltophilia CUN 3998-00 by broth microdilution method; assay type: functional
[26] = tested on: Acinetobacter baumannii; test: Antimicrobial activity against […] Acinetobacter baumannii ATCC 19606 by broth microdilution method; assay type: functional
[27] = tested on: Mus musculus; test: Antisepsis activity in Pseudomonas aeruginosa LPS-induced C57BL/6 mouse lethal endotoxin shock model assessed as mouse survival at 12.5 ug, ip administered immediately after LPS challenge; assay type: functional, organism-based
[28] = species: Homo sapiens; test: Antiinflammatory activity in human MNC assessed as inhibition of LPS-induced TNFalpha production at compound: LPS ratio of <10:1 weight percent by ELISA; assay type: functional
[29] = species: Homo sapiens; test: Antiinflammatory activity in human MNC assessed as inhibition of LPS-induced TNFalpha production at compound: LPS ratio of 10:1 weight percent by ELISA; assay type: functional

## N=C(N)NCCC[C@H](NC(=O)[C@H](Cc1ccc(O)cc1)NC(=O)[C@H](CCCCN)NC(=O)[C@H](CCCCN)NC(=O)[C@H](CS)NC(=O)CN)C(=O)N[C@@H](CCCNC(=N)N)C(=O)N[C@@H](Cc1ccccc1)C(=O)N[C@@H](CCCNC(=N)N)C(=O)N[C@@H](Cc1c[nH]c2ccccc12)C(=O)N[C@@H](CCCCN)C(=O)N[C@@H](Cc1ccccc1)C(=O)N[C@@H](CCCCN)C(=O)NCC(=O)N[C@@H](CCCCN)C(=O)N[C@@H](Cc1ccccc1)C(=O)N[C@@H](Cc1c[nH]c2ccccc12)C(=O)N[C@@H](Cc1ccccc1)C(=O)N[C@@H](Cc1c[nH]c2ccccc12)C(=O)NCC(=O)O
[1]
  inhibition: Active
[2]
  Activity: Active
[3]
  Activity: Non-toxic
[4]
  Activity: Toxic
[5]
  Activity: Non-toxic
[6]
  Activity: Toxic
[7]
  Activity: Non-toxic
[8]
  Activity: Toxic
[9]
  Activity: Non-toxic
[10]
  Activity: Toxic
[11]
  Activity: Non-toxic
[12]
  Activity: Toxic
[13]
  Activity: Non-toxic
[14]
  Activity: Toxic
[15]
  Activity: Non-toxic
[16]
  Activity: Active
[17]
  Activity: Active

## N=C(N)NCCC[C@H](NC(=O)[C@H](Cc1ccc(O)cc1)NC(=O)[C@H](CCCCN)NC(=O)[C@H](CCCCN)NC(=O)[C@H](CS)NC(=O)CN)C(=O)N[C@@H](CCCNC(=N)N)C(=O)N[C@@H](Cc1ccccc1)C(=O)N[C@@H](CCCNC(=N)N)C(=O)N[C@@H](Cc1c[nH]c2ccccc12)C(=O)N[C@@H](CCCCN)C(=O)N[C@@H](Cc1ccccc1)C(=O)N[C@@H](CCCCN)C(=O)NCC(=O)N[C@@H](CCCCN)C(=O)N[C@@H](Cc1ccccc1)C(=O)N[C@@H](Cc1c[nH]c2ccccc12)C(=O)N[C@@H](Cc1ccccc1)C(=O)N[C@@H](Cc1c[nH]c2ccccc12)C(=O)O (H-GCKKYRRFRWKFKGKFWFW-OH)
[18]
  MIC: 64 µg/mL (≈ 24.1 µM)
[19]
  MIC: 128 µg/mL (≈ 48.2 µM)
[20]
  MIC: 64 µg/mL (≈ 24.1 µM)
[21]
  MIC: 64 µg/mL (≈ 24.1 µM)
[22]
  MIC: 64 µg/mL (≈ 24.1 µM)
[23]
  MIC: 32 µg/mL (≈ 12.1 µM)
[24]
  MIC: 64 µg/mL (≈ 24.1 µM)
[25]
  MIC: 128 µg/mL (≈ 48.2 µM)
[26]
  MIC: 64 µg/mL (≈ 24.1 µM)
[1]
  inhibition: Active
[15]
  Activity: Non-toxic

## N=C(N)NCCC[C@H](NC(=O)[C@H](Cc1ccc(O)cc1)NC(=O)[C@H](CCCCN)NC(=O)[C@H](CCCCN)NC(=O)[C@H](CS)NC(=O)CN)C(=O)N[C@@H](CCCNC(=N)N)C(=O)N[C@@H](Cc1ccccc1)C(=O)N[C@@H](CCCNC(=N)N)C(=O)N[C@@H](Cc1c[nH]c2ccccc12)C(=O)N[C@@H](CCCCN)C(=O)N[C@@H](Cc1ccccc1)C(=O)N[C@@H](CCCCN)C(=O)NCC(=O)N[C@@H](CCCCN)C(=O)N[C@@H](Cc1ccccc1)C(=O)N[C@@H](Cc1c[nH]c2ccccc12)C(=O)N[C@@H](Cc1ccccc1)C(=O)N[C@@H](Cc1c[nH]c2ccccc12)C(=O)N[C@@H](CS)C(=O)NCC(=O)O (H-GCKKYRRFRWKFKGKFWFWCG-OH)
[18]
  MIC: 32 µg/mL (≈ 11.4 µM)
[19]
  MIC: 256 µg/mL (≈ 90.9 µM)
[20]
  MIC: 128 µg/mL (≈ 45.5 µM)
[21]
  MIC: 128 µg/mL (≈ 45.5 µM)
[22]
  MIC: 128 µg/mL (≈ 45.5 µM)
[23]
  MIC: 128 µg/mL (≈ 45.5 µM)
[24]
  MIC: 1020 µg/mL (≈ 364 µM)
[25]
  MIC: 512 µg/mL (≈ 182 µM)
[26]
  MIC: 64 µg/mL (≈ 22.7 µM)
[1]
  inhibition: Active
[27]
  Activity: Active

## N=C(N)NCCC[C@H](NC(=O)CNC(=O)[C@H](CCCCN)NC(=O)[C@H](CCCNC(=N)N)NC(=O)[C@H](Cc1ccccc1)NC(=O)[C@H](CCCCN)NC(=O)[C@H](Cc1c[nH]c2ccccc12)NC(=O)[C@H](CCCNC(=N)N)NC(=O)[C@H](Cc1ccccc1)NC(=O)[C@H](CCCNC(=N)N)NC(=O)[C@H](CCCNC(=N)N)NC(=O)[C@H](Cc1ccc(O)cc1)NC(=O)[C@H](CCCCN)NC(=O)[C@H](CCCCN)NC(=O)CN)C(=O)N[C@@H](Cc1ccccc1)C(=O)N[C@@H](Cc1c[nH]c2ccccc12)C(=O)N[C@@H](Cc1ccccc1)C(=O)N[C@@H](Cc1c[nH]c2ccccc12)C(=O)NCC(=O)O (H-GKKYRRFRWKFRKGRFWFWG-OH)
[18]
  MIC: 4 µg/mL (≈ 1.43 µM)
[19]
  MIC: 32 µg/mL (≈ 11.5 µM)
[20]
  MIC: 16 µg/mL (≈ 5.73 µM)
[21]
  MIC: 16 µg/mL (≈ 5.73 µM)
[22]
  MIC: 16 µg/mL (≈ 5.73 µM)
[23]
  MIC: 16 µg/mL (≈ 5.73 µM)
[24]
  MIC: 16 µg/mL (≈ 5.73 µM)
[25]
  MIC: 64 µg/mL (≈ 22.9 µM)
[26]
  MIC: 16 µg/mL (≈ 5.73 µM)
[1]
  inhibition: Active
[27]
  Activity: inactive

## N=C(N)NCCC[C@H](NC(=O)CNC(=O)[C@H](CCCCN)NC(=O)[C@H](Cc1ccccc1)NC(=O)[C@H](CCCCN)NC(=O)[C@H](Cc1c[nH]c2ccccc12)NC(=O)[C@H](CCCNC(=N)N)NC(=O)[C@H](Cc1ccccc1)NC(=O)[C@H](CCCCN)NC(=O)[C@H](CCCCN)NC(=O)[C@H](Cc1ccc(O)cc1)NC(=O)[C@H](CCCNC(=N)N)NC(=O)[C@H](CCCNC(=N)N)NC(=O)CN)C(=O)N[C@@H](Cc1c[nH]c2ccccc12)C(=O)N[C@@H](Cc1ccccc1)C(=O)N[C@@H](Cc1c[nH]c2ccccc12)C(=O)N[C@@H](Cc1ccccc1)C(=O)NCC(=O)O (H-GRRYKKFRWKFKGRWFWFG-OH)
[18]
  MIC: 128 µg/mL (≈ 48.5 µM)
[19]
  MIC: 32 µg/mL (≈ 12.1 µM)
[20]
  MIC: 16 µg/mL (≈ 6.07 µM)
[21]
  MIC: 16 µg/mL (≈ 6.07 µM)
[22]
  MIC: 8 µg/mL (≈ 3.03 µM)
[23]
  MIC: 8 µg/mL (≈ 3.03 µM)
[24]
  MIC: 8 µg/mL (≈ 3.03 µM)
[25]
  MIC: 32 µg/mL (≈ 12.1 µM)
[26]
  MIC: 16 µg/mL (≈ 6.07 µM)
[1]
  inhibition: Active
[27]
  Activity: inactive
[15]
  Activity: Non-toxic

## CC[C@H](C)[C@H](NC(=O)CN)C(=O)NCC(=O)N[C@@H](C)C(=O)N[C@H](C(=O)N[C@@H](CC(C)C)C(=O)N[C@@H](CCCCN)C(=O)N[C@H](C(=O)N[C@@H](CC(C)C)C(=O)N[C@H](C(=O)N[C@H](C(=O)NCC(=O)N[C@@H](CC(C)C)C(=O)N1CCC[C@H]1C(=O)N[C@@H](C)C(=O)N[C@@H](CC(C)C)C(=O)N[C@H](C(=O)N[C@@H](CO)C(=O)N[C@@H](Cc1c[nH]c2ccccc12)C(=O)N[C@H](C(=O)N[C@@H](CCCCN)C(=O)N[C@@H](CCCNC(=N)N)C(=O)N[C@@H](CCCCN)C(=O)N[C@@H](CCCNC(=N)N)C(=O)N[C@@H](CCC(N)=O)C(=O)N[C@@H](CCC(N)=O)C(N)=O)[C@@H](C)CC)[C@@H](C)CC)[C@@H](C)O)[C@@H](C)O)C(C)C)C(C)C [MELITTIN]
[15]
  Activity: Non-toxic

## POLYMYXIN B
[27]
  Activity: Active
[2]
  Activity: Active
[28]
  inhibition: Active
[29]
  inhibition: Active
